Values quoted from earlier work as cited in patent US11596701B2, “Disinfection method using a disinfection agent formed in situ by reaction of H2O2 and NO2-” (LEIBNIZ-INSTITUT FÜR PLASMAFORSCHUNG UND TECHNOLOGIE E.V., priority 2018, dated 2023).
Where two headings read alike, the source gives them in different places.

Conditions: room temperature

## peroxynitric acid
Lammel et al., 1990
  half-life: about 3 minutes
As stated in US 20170172149
  half-life: about 10 minutes
